PubChem BioAssay AID330 (DTP/NCI, 2004)
“And” between values parts separate entries of the source, which are not always exact repeats. Equal values may be shown once. Inconclusive results and toxic doses are left out.

Test system: P388 leukemia ip, CD2F1 mice, survival T/C
Experiment: NCI In Vivo Anticancer Drug Screen. Data for tumor model P388 Leukemia (intraperitoneal) in CD2F1 (CDF1) mice
Details: endpoint: median survival time, higher = longer survival
Procedure, shortened: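 Mice carrying the transplanted tumor received test compound or vehicle. Survival was recorded in each group, and the value is the treated-group measurement divided by that of the vehicle-treated control group.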

[1] = dose: 50.0 mg/kg/injection, schedule: Q01DX009 (ip), vehicle: saline with Tween-80
[2] = dose: 100.0 mg/kg/injection, schedule: Q01DX009 (ip), vehicle: saline with Tween-80
[3] = dose: 200.0 mg/kg/injection, schedule: Q01DX009 (ip), vehicle: saline with Tween-80
[4] = dose: 100.0 mg/kg/injection, schedule: Q04DX003 (ip), vehicle: saline with Tween-80
[5] = dose: 200.0 mg/kg/injection, schedule: Q04DX003 (ip), vehicle: saline with Tween-80
[6] = dose: 400.0 mg/kg/injection, schedule: Q04DX003 (ip), vehicle: saline with Tween-80
[7] = dose: 12.5 mg/kg/injection, schedule: Q01DX009 (ip), vehicle: saline with Tween-80
[8] = dose: 25.0 mg/kg/injection, schedule: Q01DX009 (ip), vehicle: saline with Tween-80
[9] = dose: 50.0 mg/kg/injection, schedule: Q01DX009 (ip), vehicle: Klucel (hydroxypropylcellulose) (HPC)
[10] = dose: 100.0 mg/kg/injection, schedule: Q01DX009 (ip), vehicle: Klucel (hydroxypropylcellulose) (HPC)
[11] = dose: 200.0 mg/kg/injection, schedule: Q01DX009 (ip), vehicle: Klucel (hydroxypropylcellulose) (HPC)
[12] = dose: 60.0 mg/kg/injection, schedule: Q01DX005 (ip), vehicle: saline with Tween-80
[13] = dose: 120.0 mg/kg/injection, schedule: Q01DX005 (ip), vehicle: saline with Tween-80
[14] = dose: 240.0 mg/kg/injection, schedule: Q01DX005 (ip), vehicle: saline with Tween-80
[15] = dose: 50.0 mg/kg/injection, schedule: Q01DX005 (ip), vehicle: Klucel (hydroxypropylcellulose) (HPC)
[16] = dose: 100.0 mg/kg/injection, schedule: Q01DX005 (ip), vehicle: Klucel (hydroxypropylcellulose) (HPC)
[17] = dose: 200.0 mg/kg/injection, schedule: Q01DX005 (ip), vehicle: Klucel (hydroxypropylcellulose) (HPC)

## O.O.O=S(=O)(O)C(F)(F)F.[NH2-].[NH2-].[NH2-].[NH2-].[Ru+3]
dose: 12.5 mg/kg/injection, schedule: Q04DX003 (ip), vehicle: saline
  T/C: 115 % of control
dose: 25.0 mg/kg/injection, schedule: Q04DX003 (ip), vehicle: saline
  T/C: 124 % of control
dose: 100.0 mg/kg/injection, schedule: Q04DX003 (ip), vehicle: saline
  T/C: 157 % of control

## O=C1c2ccccc2C(=O)c2c(NCCN3CCOCC3)ccc(NCCN3CCOCC3)c21
[1]
  T/C: 108 % of control
[2]
  T/C: 109 % of control
[3]
  T/C: 115 % of control
dose: 400.0 mg/kg/injection, schedule: Q01DX009 (ip), vehicle: saline with Tween-80
  T/C: 117 % of control

## CCn1c2ccccc2c2cc(N=Nc3cc(C(C)C)c(O)cc3C)ccc21
[4]
  T/C: 93 % of control
[5]
  T/C: 102 % of control
[6]
  T/C: 102 % of control

## CCN1/C(=C/C=C/C=C/c2sc3ccccc3[n+]2CC)Sc2ccccc21
dose: 0.05 mg/kg/injection, schedule: Q01DX009 (ip), vehicle: saline
  T/C: 123 % of control
dose: 0.06 mg/kg/injection, schedule: Q01DX009 (ip), vehicle: saline
  T/C: 124 % of control
dose: 0.08 mg/kg/injection, schedule: Q01DX009 (ip), vehicle: saline
  T/C: 107 % of control
dose: 0.12 mg/kg/injection, schedule: Q01DX009 (ip), vehicle: saline
  T/C: 117 % of control and 122 % of control
dose: 0.25 mg/kg/injection, schedule: Q01DX009 (ip), vehicle: saline
  T/C: 123 % of control
dose: 0.28 mg/kg/injection, schedule: Q01DX009 (ip), vehicle: saline
  T/C: 123 % of control

## N#Cc1cn(C2OC(CO)C(O)C2O)c2ncnc(N)c12 (stereo unspecified)
dose: 0.05 mg/kg/injection, schedule: Q01DX009 (ip), vehicle: other
  T/C: 124 % of control
dose: 0.1 mg/kg/injection, schedule: Q01DX009 (ip), vehicle: other
  T/C: 155 % of control
dose: 0.13 mg/kg/injection, schedule: Q04DX003 (ip), vehicle: other
  T/C: 154 % of control
dose: 0.15 mg/kg/injection, schedule: Q04DX003 (ip), vehicle: other
  T/C: 163 % of control
dose: 0.2 mg/kg/injection, schedule: Q01DX009 (ip), vehicle: other
  T/C: 120 % of control
dose: 0.2 mg/kg/injection, schedule: Q04DX003 (ip), vehicle: other
  T/C: 150 % of control
dose: 0.4 mg/kg/injection, schedule: Q01DX009 (ip), vehicle: other
  T/C: 95 % of control
dose: 1.0 mg/kg/injection, schedule: Q04DX003 (ip), vehicle: saline with Tween-80
  T/C: 165 % of control
dose: 2.0 mg/kg/injection, schedule: Q04DX003 (ip), vehicle: saline with Tween-80
  T/C: 150 % of control
dose: 4.0 mg/kg/injection, schedule: Q04DX003 (ip), vehicle: saline with Tween-80
  T/C: 95 % of control
dose: 29.6 micrograms/kg/injection, schedule: Q04DX003 (ip), vehicle: other
  T/C: 110 % of control
dose: 44.0 micrograms/kg/injection, schedule: Q04DX003 (ip), vehicle: other
  T/C: 120 % of control
dose: 66.0 micrograms/kg/injection, schedule: Q04DX003 (ip), vehicle: other
  T/C: 153 % of control

## Clc1ccccc1/C=C/C=C1c2ccccc2-c2ccccc21
[7]
  T/C: 90 % of control
[8]
  T/C: 104 % of control
[1]
  T/C: 113 % of control
[4]
  T/C: 95 % of control
[5]
  T/C: 109 % of control
[6]
  T/C: 109 % of control

## O=C1CSC(c2cc([N+](=O)[O-])ccc2Cl)N1c1nncs1 (stereo unspecified)
dose: 60.0 mg/kg/injection, schedule: Q01DX005 (ip), vehicle: Klucel (hydroxypropylcellulose) (HPC)
  T/C: 108 % of control
dose: 120.0 mg/kg/injection, schedule: Q01DX005 (ip), vehicle: Klucel (hydroxypropylcellulose) (HPC)
  T/C: 105 % of control
dose: 240.0 mg/kg/injection, schedule: Q01DX005 (ip), vehicle: Klucel (hydroxypropylcellulose) (HPC)
  T/C: 98 % of control

## FC1OC1(F)C12CC3CC(CC(C3)C1)C2 (stereo unspecified)
[9]
  T/C: 106 % of control
[10]
  T/C: 106 % of control
[11]
  T/C: 105 % of control

## CCC1(c2ccccc2)C(C#N)C(=O)NC(=O)C1C#N (stereo unspecified)
[12]
  T/C: 106 % of control
[13]
  T/C: 99 % of control
[14]
  T/C: 101 % of control

## CC(=O)OCC(C)[C@H](C)C(=O)C1OCOC(C2CC(=O)NC(=O)C2)[C@@H]1OC(C)=O (stereo partly specified)
dose: 0.01 mg/kg/injection, schedule: Q01DX009 (ip), vehicle: distilled water + alcohol
  T/C: 100 % of control
dose: 0.03 mg/kg/injection, schedule: Q01DX009 (ip), vehicle: distilled water + alcohol
  T/C: 98 % of control
dose: 0.06 mg/kg/injection, schedule: Q01DX009 (ip), vehicle: distilled water + alcohol
  T/C: 98 % of control
dose: 0.12 mg/kg/injection, schedule: Q01DX009 (ip), vehicle: distilled water + alcohol
  T/C: 100 % of control

## O=C(O)C(CS)NC1CC(=O)N(Cc2ccccc2)C1=O (stereo unspecified)
[15]
  T/C: 110 % of control
[16]
  T/C: 103 % of control
[17]
  T/C: 103 % of control

## COCCCNC1=C(Cl)C(=O)c2ccccc2C1=O
[1]
  T/C: 99 % of control
[2]
  T/C: 117 % of control
[3]
  T/C: 104 % of control

## O=C1CSC(=S)N1Cc1cccnc1
[9]
  T/C: 100 % of control
[10]
  T/C: 102 % of control
[11]
  T/C: 106 % of control

## Cc1onc(-c2ccccc2)c1C
dose: 100.0 mg/kg/injection, schedule: Q01DX001 (ip), vehicle: saline
  T/C: 99 % of control
dose: 200.0 mg/kg/injection, schedule: Q01DX001 (ip), vehicle: saline
  T/C: 102 % of control
dose: 400.0 mg/kg/injection, schedule: Q01DX001 (ip), vehicle: saline
  T/C: 105 % of control

## N=c1sccn1CC(O)c1ccccc1 (stereo unspecified)
dose: 100.0 mg/kg/injection, schedule: Q01DX001 (ip), vehicle: Klucel (hydroxypropylcellulose) (HPC)
  T/C: 100 % of control
dose: 200.0 mg/kg/injection, schedule: Q01DX001 (ip), vehicle: Klucel (hydroxypropylcellulose) (HPC)
  T/C: 100 % of control

## CC(C)(C)N=C(Cc1ccccc1)N1CCOCC1
[1]
  T/C: 119 % of control
[2]
  T/C: 96 % of control
[3]
  T/C: 90 % of control

## O=C(/C=C/C=C/c1ccccc1)CCc1ccccc1
dose: 25.0 mg/kg/injection, schedule: Q01DX005 (ip), vehicle: Klucel (hydroxypropylcellulose) (HPC)
  T/C: 95 % of control
[15]
  T/C: 101 % of control
[16]
  T/C: 100 % of control
[17]
  T/C: 92 % of control

## CCOC(=O)c1c(C)csc1NC(=O)CSCC(=O)OC
[12]
  T/C: 99 % of control
[13]
  T/C: 100 % of control
[14]
  T/C: 94 % of control

## CCOC(=O)CC(C)=NCCN=C(C)CC(=O)OCC
[1]
  T/C: 104 % of control
[2]
  T/C: 106 % of control
[3]
  T/C: 111 % of control

## COc1ccc(CN2CCCNCC2)cc1
dose: 12.5 mg/kg/injection, schedule: Q01DX009 (ip), vehicle: water
  T/C: 93 % of control
dose: 25.0 mg/kg/injection, schedule: Q01DX009 (ip), vehicle: water
  T/C: 100 % of control
dose: 50.0 mg/kg/injection, schedule: Q01DX009 (ip), vehicle: water
  T/C: 102 % of control
dose: 100.0 mg/kg/injection, schedule: Q01DX009 (ip), vehicle: water
  T/C: 93 % of control

## CC(CNC(=O)CCOS(C)(=O)=O)CNC(=O)CCOS(C)(=O)=O
dose: 6.25 mg/kg/injection, schedule: Q01DX009 (ip), vehicle: saline
  T/C: 105 % of control
dose: 12.5 mg/kg/injection, schedule: Q01DX009 (ip), vehicle: saline
  T/C: 106 % of control
dose: 25.0 mg/kg/injection, schedule: Q01DX009 (ip), vehicle: saline
  T/C: 100 % of control
dose: 50.0 mg/kg/injection, schedule: Q01DX009 (ip), vehicle: saline
  T/C: 102 % of control

## CC(=O)Nc1ccc(C(=O)N/N=C/c2ccccc2O)cc1
dose: 6.25 mg/kg/injection, schedule: Q01DX009 (ip), vehicle: Klucel (hydroxypropylcellulose) (HPC)
  T/C: 90 % of control
dose: 12.5 mg/kg/injection, schedule: Q01DX009 (ip), vehicle: Klucel (hydroxypropylcellulose) (HPC)
  T/C: 93 % of control
dose: 25.0 mg/kg/injection, schedule: Q01DX009 (ip), vehicle: Klucel (hydroxypropylcellulose) (HPC)
  T/C: 88 % of control

## CCOP(=O)(OCC)C(=C(Cl)Cl)C(Cl)Cl
[7]
  T/C: 100 % of control and 104 % of control
[8]
  T/C: 105 % of control and 115 % of control
[1]
  T/C: 113 % of control and 118 % of control and 124 % of control
[2]
  T/C: 116 % of control

## N=C(N)Sc1ccc([N+](=O)[O-])cc1Cl
[15]
  T/C: 104 % of control
[16]
  T/C: 104 % of control
[17]
  T/C: 101 % of control

## C/C(CC(C)C)=N\NC(=O)CNC(=O)c1ccccc1
[12]
  T/C: 100 % of control
[13]
  T/C: 106 % of control
[14]
  T/C: 95 % of control
